Patent publication US20090036474A1, “Quinazoline derivatives for use against cancer” (priority 2004, published 2009)

What was measured:
PDGFRβ tyrosine kinase = biological target: T1, PDGFRβ tyrosine kinase (Homo sapiens, UniProt P09619); assay: In vitro enzyme assay (ELISA), Test (a), PDGFRβ; format: biochemical; settings: ATP 2.8 μM, read-out: IC50 versus PDGFRβ tyrosine kinase
T1 construct: PDGFRα, PDGFRβ and KDR receptor cytoplasmic domains, obtained by expression of recombinant protein in insect cells; purchased Upstate Biotechnology Inc. 14-463; host or cells: Sf9 insect cells
Description: (§1) The ability of test compounds to inhibit the phosphorylation of a tyrosine containing polypeptide substrate by the tyrosine kinase enzymes PDGFRα, PDGFRβ and KDR was assessed using conventional ELISA assays. DNA encoding the PDGFRα, PDGFRβ or KDR receptor cytoplasmic domains may be obtained by total gene synthesis (International Biotechnology Lab., 1987, 5(3), 19-25) or by cloning. The DNA fragments may be expressed in a suitable expression system to obtain polypeptide with tyrosine kinase activity. For example, PDGFRα, PDGFRβ and KDR receptor cytoplasmic domains, obtained by expression of recombinant protein in insect cells, can be shown to display intrinsic tyrosine kinase activity. In the case of the VEGF receptor KDR (Genbank Accession No. L04947), a DNA fragment encoding most of the cytoplasmic domain, commencing with methionine 806 and including the termination codon may be cloned into a baculovirus transplacement vector [for example pAcYM1 (see The Baculovirus Expression System: A Laboratory Guide, L. A. King and R. D. Possee, Chapman and Hall, 1992) or pAc360 or pBlueBacHis (available from Invitrogen Corporation)]. This recombinant construct may be co-transfected into insect cells [for example Spodoptera frugiperda 21(Sf21) or Spodoptera frugiperda 9(Sf9)] with viral DNA (for example Pharmingen BaculoGold) to prepare recombinant baculovirus. […]

PDGFRα tyrosine kinase = biological target: T2, PDGFRα tyrosine kinase (Homo sapiens, UniProt P16234); assay: In vitro enzyme assay (ELISA), Test (a), PDGFRα; format: biochemical; settings: ATP 14 μM, read-out: IC50 versus PDGFRα tyrosine kinase
T2 construct: PDGFRα, PDGFRβ and KDR receptor cytoplasmic domains, obtained by expression of recombinant protein in insect cells; purchased Upstate Biotechnology Inc. 14-467; host or cells: Sf9 insect cells
Description: as §1

T1 sequence (P09619 554-1106 limits assumed): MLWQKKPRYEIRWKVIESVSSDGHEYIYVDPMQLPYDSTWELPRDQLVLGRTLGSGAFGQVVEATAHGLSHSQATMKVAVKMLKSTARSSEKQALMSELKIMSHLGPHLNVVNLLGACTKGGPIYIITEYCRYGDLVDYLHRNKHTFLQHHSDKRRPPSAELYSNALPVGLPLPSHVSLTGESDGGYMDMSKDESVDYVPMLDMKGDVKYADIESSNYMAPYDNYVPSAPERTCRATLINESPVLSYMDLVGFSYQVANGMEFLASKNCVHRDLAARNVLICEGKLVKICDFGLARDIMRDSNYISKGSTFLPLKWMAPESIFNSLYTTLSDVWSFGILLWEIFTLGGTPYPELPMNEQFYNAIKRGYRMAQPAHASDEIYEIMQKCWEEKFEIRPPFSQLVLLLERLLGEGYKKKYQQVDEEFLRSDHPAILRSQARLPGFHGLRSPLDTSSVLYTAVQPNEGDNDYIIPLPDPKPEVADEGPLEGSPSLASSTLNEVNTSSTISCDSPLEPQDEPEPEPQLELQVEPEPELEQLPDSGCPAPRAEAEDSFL
T2 sequence (P16234 550-1089 limits assumed): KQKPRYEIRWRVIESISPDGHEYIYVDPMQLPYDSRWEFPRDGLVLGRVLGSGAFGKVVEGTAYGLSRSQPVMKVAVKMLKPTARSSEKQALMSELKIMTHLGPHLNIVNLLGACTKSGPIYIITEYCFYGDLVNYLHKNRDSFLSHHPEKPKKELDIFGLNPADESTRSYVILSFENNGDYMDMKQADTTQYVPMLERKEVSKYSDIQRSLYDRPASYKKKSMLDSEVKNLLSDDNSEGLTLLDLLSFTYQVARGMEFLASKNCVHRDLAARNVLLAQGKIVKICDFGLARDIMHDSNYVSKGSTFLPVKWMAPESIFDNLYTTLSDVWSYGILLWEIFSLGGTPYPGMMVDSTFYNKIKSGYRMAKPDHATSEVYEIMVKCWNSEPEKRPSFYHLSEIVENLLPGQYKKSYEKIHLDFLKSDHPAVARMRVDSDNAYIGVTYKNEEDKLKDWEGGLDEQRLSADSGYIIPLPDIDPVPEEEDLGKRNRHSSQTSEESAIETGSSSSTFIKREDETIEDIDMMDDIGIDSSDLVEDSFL

COc1cc2ncnc(Oc3cnn(CC(=O)Nc4cccc5c4OCO5)c3)c2cc1OC [Example 2, N-(2,3-methylenedioxyphenyl)-2-[4-(6,7-dimethoxyquinazolin-4-yloxy)pyrazol-1-yl]acetamide]
IC50 (PDGFRβ tyrosine kinase): ~10 nM
IC50 (PDGFRα tyrosine kinase): ~100 nM
